Data published in patent US12226424B2, “Target protein degradation compounds, their anti-tumor use, their intermediates and use of intermediates” (ShanghaiTech University, priority 2018, dated 2025).
Where two headings read alike, the source gives them in different places.

How the values were obtained:
BCR-ABL = BCR-ABL (Homo sapiens, UniProt P00519); assay: Western-blot half-degradation concentration (DC50) / degradation of BCR-ABL in K562 cells; conditions: read-out: DC50 (nM)/K562 cell line, BCR-ABL protein degradation, 24 hours, Western-blot
HEK293 cells = assay: Proliferation inhibition (IC50) on non-BCR-ABL-positive HEK293 cells
[1] = test system: K562 cells (BCR-ABL positive); assay: Half inhibitory concentration (IC50) on tumor cells, CCK-8, K562; conditions: read-out: IC50 (nM)/K562 cell line
Procedure: K562 cells were seeded in 100 μL of RPMI1640 complete medium at a density of 20,000 cells/well. 100 μL of the inoculated cells were treated with 100 μL diluted PROTAD compound of the present disclosure to be tested at 9 successively decreasing concentrations (starting at the highest concentration of 10 μM; 3-fold serial dilutions). After the cells were treated with the tested drugs for 48 hours, the cell viability determination was performed in accordance with CCK-8 reagent operating instructions. The negative control was DMSO, and positive control was a commercial inhibitor. After CCK-8 treatment for 2 h, the value of O.D.450 was measured using a microplate reader.

U937 cells = assay: Proliferation inhibition (IC50) on non-BCR-ABL-positive U937 cells
[2] = test system: MDA-MB-436 cells (PARP-positive); assay: Half inhibitory concentration (IC50) on PARP-positive tumor cells, CCK-8, MDA-MB-436; type: cell-based; conditions: Homo sapiens, 72 hours, read-out: IC50 (μM)/MDA-MB-436 cell line
Procedure: PARP-positive cells MDA-MB-436 cells (human breast cancer cells) were purchased from the American Type Culture Collection (ATCC).
The cells used in this present disclosure were cultured in a 37° C. incubator containing 5% CO2. The complete cell culture medium was DMEM medium with 10% fetal bovine serum, and the final concentrations of penicillin and streptomycin were 100 U/mL, respectively. All cells were tested negative for mycoplasma with mycoplasma detection kit before the experiment.
Determination of Half Inhibitory Concentration (IC50) of PROTAD Compounds on Tumor Cells
MDA-MB-436 cells were seeded in 100 μL DMEM complete medium at a density of 3500 cells/well. 100 μL of the inoculated cells were treated with 0.5 μL diluted PROTAD compounds of the present disclosure to be tested at 10 successively decreasing concentrations (starting at the highest concentration of 50 μM; 3-fold serial dilutions). After the cells were treated with the tested drugs for 72 hours, cell viability was determined according to the CCK-8 reagent operating instructions. The negative control was DMSO, and the positive control was a commercial inhibitor. After CCK-8 treatment for 2 h, the value of O.D.450 was measured using a microplate reader.

[3] = Homo sapiens, HEK293, read-out: IC50 (nM)/HEK293 cell line
[4] = Homo sapiens, U-937, read-out: IC50 (nM)/U937 cell line

Sequence of BCR-ABL (P00519 with tags, fused parts or gaps): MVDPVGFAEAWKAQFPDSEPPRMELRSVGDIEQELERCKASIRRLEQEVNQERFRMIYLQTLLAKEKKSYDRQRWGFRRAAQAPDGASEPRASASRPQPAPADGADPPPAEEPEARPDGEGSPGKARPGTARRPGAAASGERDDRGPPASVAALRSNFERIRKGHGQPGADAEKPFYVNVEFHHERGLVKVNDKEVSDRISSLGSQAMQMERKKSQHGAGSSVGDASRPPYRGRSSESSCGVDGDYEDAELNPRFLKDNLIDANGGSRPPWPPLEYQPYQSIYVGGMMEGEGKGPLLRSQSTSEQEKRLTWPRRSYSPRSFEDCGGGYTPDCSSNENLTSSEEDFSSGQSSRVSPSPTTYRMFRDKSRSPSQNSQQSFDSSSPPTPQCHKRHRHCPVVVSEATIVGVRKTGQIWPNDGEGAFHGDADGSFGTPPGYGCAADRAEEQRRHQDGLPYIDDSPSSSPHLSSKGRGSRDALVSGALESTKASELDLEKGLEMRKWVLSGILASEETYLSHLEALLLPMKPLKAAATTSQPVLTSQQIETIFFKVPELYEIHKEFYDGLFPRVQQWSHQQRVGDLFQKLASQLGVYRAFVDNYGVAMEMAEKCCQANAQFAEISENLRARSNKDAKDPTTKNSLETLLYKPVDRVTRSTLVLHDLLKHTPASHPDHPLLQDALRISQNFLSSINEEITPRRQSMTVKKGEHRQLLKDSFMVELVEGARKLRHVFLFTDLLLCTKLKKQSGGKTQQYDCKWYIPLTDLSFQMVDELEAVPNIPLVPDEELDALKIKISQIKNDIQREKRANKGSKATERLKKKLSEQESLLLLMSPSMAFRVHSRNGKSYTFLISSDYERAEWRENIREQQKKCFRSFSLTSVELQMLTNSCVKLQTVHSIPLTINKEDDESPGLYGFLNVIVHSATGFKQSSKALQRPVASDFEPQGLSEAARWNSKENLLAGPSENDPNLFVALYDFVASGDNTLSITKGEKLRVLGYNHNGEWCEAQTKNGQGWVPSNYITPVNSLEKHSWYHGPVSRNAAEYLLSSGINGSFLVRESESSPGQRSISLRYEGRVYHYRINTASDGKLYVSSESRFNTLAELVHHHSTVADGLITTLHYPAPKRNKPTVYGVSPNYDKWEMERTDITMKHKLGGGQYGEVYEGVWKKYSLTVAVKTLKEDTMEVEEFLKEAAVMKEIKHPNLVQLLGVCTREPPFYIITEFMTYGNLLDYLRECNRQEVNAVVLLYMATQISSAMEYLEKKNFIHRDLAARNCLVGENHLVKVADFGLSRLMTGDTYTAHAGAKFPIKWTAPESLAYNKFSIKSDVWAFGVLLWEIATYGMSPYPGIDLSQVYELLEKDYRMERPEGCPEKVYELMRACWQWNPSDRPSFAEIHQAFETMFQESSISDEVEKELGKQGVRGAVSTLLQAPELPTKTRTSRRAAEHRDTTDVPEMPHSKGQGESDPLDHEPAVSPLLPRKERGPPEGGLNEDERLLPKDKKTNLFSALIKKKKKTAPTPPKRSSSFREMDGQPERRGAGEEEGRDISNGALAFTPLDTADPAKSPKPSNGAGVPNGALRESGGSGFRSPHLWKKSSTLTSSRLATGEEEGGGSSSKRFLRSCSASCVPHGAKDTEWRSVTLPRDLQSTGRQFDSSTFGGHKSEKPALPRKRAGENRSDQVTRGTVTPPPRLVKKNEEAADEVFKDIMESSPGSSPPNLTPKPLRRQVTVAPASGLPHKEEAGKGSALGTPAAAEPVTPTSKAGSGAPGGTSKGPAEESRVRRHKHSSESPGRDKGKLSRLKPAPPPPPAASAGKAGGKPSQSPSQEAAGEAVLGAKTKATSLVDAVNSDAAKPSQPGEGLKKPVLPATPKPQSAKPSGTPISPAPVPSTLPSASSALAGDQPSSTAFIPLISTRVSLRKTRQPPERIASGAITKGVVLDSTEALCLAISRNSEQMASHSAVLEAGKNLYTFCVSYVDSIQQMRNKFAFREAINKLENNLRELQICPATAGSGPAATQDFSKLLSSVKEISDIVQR

DC50 (BCR-ABL) | IC50 ([1]; Homo sapiens, K562, 48 h) | IC50 (U937 cells; [4]) | IC50 [2] | SMILES | IC50 (HEK293 cells; [3]) | other results
5.2 nM | 1.4 nM | > 10000 nM | – | Cc1nc(Nc2ncc(C(=O)Nc3c(C)cccc3Cl)s2)cc(N2CCN(C(=O)CCCSc3cccc4c3CN(C3CCC(=O)NC3=O)C4=O)CC2)n1 (centres unmarked) [SIAIS171107, N-(2-chloro-6-methylphenyl)-2-((6-(4-(4-((2-(2,6-dioxopiperidin-3-yl)-1-oxoisoindolin-4-yl)thio)butanoyl)piperazin-1-yl)-2-methylpyrimidin-4-yl)amino)thiazole-5-carboxamide] | > 10000 nM | –
– | – | – | 6.45 µM | O=C1CCC(N2C(=O)c3cccc(SCC(=O)N4CCN(C(=O)c5cc(Cc6n[nH]c(=O)c7ccccc67)ccc5F)CC4)c3C2=O)C(=O)N1 (centres unmarked) [SIAIS180063, 2-(2,6-dioxopiperidin-3-yl)-4-((2-(4-(2-fluoro-5-((4-oxo-3,4-dihydrophthalazin-1-yl)methyl)benzoyl)piperazin-1-yl)-2-oxoethyl)thio)isoindoline-1,3-dione] | – | –
– | – | – | 2.09 µM | O=C1CCC(N2C(=O)c3cccc(SCCCCCCC(=O)N4CCN(C(=O)c5cc(Cc6n[nH]c(=O)c7ccccc67)ccc5F)CC4)c3C2=O)C(=O)N1 (centres unmarked) [SIAIS180068, 2-(2,6-dioxopiperidin-3-yl)-4-((7-(4-(2-fluoro-5-((4-oxo-3,4-dihydrophthalazin-1-yl)methyl)benzoyl)piperazin-1-yl)-7-oxoheptyl)thio)isoindoline-1,3-dione] | – | –
– | – | – | 2.31 µM | O=C(c1cc(Cc2n[nH]c(=O)c3ccccc23)ccc1F)N1CCN(C(=O)C2CC2)CC1 [Olaparib, reference compound] | – | –
– | – | – | 2.9 µM | O=C1CCC(N2C(=O)c3cccc(SCCCCCC(=O)N4CCN(C(=O)c5cc(Cc6n[nH]c(=O)c7ccccc67)ccc5F)CC4)c3C2=O)C(=O)N1 (centres unmarked) [SIAIS180067, 2-(2,6-dioxopiperidin-3-yl)-4-((6-(4-(2-fluoro-5-((4-oxo-3,4-dihydrophthalazin-1-yl)methyl)benzoyl)piperazin-1-yl)-6-oxohexyl)thio)isoindoline-1,3-dione] | – | –
– | – | – | 1 µM | NC(=O)c1cccc2cn(-c3ccc([C@@H]4CCCNC4)cc3)nc12 [Niraparib, reference compound] | – | –
< 1 nM | 3.2 nM | > 10000 nM | – | Cc1nc(Nc2ncc(C(=O)Nc3c(C)cccc3Cl)s2)cc(N2CCN(C(=O)CSc3cccc4c3C(=O)N(C3CCC(=O)NC3=O)C4=O)CC2)n1 (centres unmarked) [SIAIS151110, N-(2-chloro-6-methylphenyl)-2-((6-(4-(2-((2-(2,6-dioxopiperidin-3-yl)-1,3-dioxoisoindolin-4-yl)thio)acetyl)piperazin-1-yl)-2-methylpyrimidin-4-yl)amino)thiazole-5-carboxamide] | > 10000 nM | –
– | – | – | 5.78 µM | O=C1CCC(N2C(=O)c3cccc(SCCC(=O)N4CCN(C(=O)c5cc(Cc6n[nH]c(=O)c7ccccc67)ccc5F)CC4)c3C2=O)C(=O)N1 (centres unmarked) [SIAIS180064, 2-(2,6-dioxopiperidin-3-yl)-4-((3-(4-(2-fluoro-5-((4-oxo-3,4-dihydrophthalazin-1-yl)methyl)benzoyl)piperazin-1-yl)-3-oxopropyl)thio)isoindoline-1,3-dione] | – | –
– | – | – | 3.57 µM | O=C1CCC(N2C(=O)c3cccc(SCCCCC(=O)N4CCN(C(=O)c5cc(Cc6n[nH]c(=O)c7ccccc67)ccc5F)CC4)c3C2=O)C(=O)N1 (centres unmarked) [SIAIS180066, 2-(2,6-dioxopiperidin-3-yl)-4-((5-(4-(2-fluoro-5-((4-oxo-3,4-dihydrophthalazin-1-yl)methyl)benzoyl)piperazin-1-yl)-5-oxopentyl)thio)isoindoline-1,3-dione] | – | –
< 1 nM | 0.49 nM | > 10000 nM | – | Cc1nc(Nc2ncc(C(=O)Nc3c(C)cccc3Cl)s2)cc(N2CCN(CCSc3cccc4c3C(=O)N(C3CCC(=O)NC3=O)C4=O)CC2)n1 (centres unmarked) [SIAIS172056, N-(2-chloro-6-methylphenyl)-2-((6-(4-(2-((2-(2,6-dioxopiperidin-3-yl)-1,3-dioxoisoindolin-4-yl)thio)ethyl)piperazin-1-yl)-2-methylpyrimidin-4-yl)amino)thiazole-5-carboxamide] | > 10000 nM | –
– | 1.33 nM | > 10000 nM | – | Cc1nc(Nc2ncc(C(=O)Nc3c(C)cccc3Cl)s2)cc(N2CCN(C(=O)CCCCCCSc3cccc4c3CN(C3CCC(=O)NC3=O)C4=O)CC2)n1 (centres unmarked) [SIAIS171110, N-(2-chloro-6-methylphenyl)-2-((6-(4-(7-((2-(2,6-dioxopiperidin-3-yl)-1-oxoisoindolin-4-yl)thio)heptanoyl)piperazin-1-yl)-2-methylpyrimidin-4-yl)amino)thiazole-5-carboxamide] | > 10000 nM | –

Second part, the compound before the results:

SMILES | DC50 (BCR-ABL) | IC50 ([1]; Homo sapiens, K562, 48 h) | IC50 (U937 cells; [4]) | IC50 [2] | IC50 (HEK293 cells; [3]) | other results
Cc1nc(Nc2ncc(C(=O)Nc3c(C)cccc3Cl)s2)cc(N2CCN(C(=O)CCSc3cccc4c3CN(C3CCC(=O)NC3=O)C4=O)CC2)n1 (centres unmarked) [SIAIS171106, N-(2-chloro-6-methylphenyl)-2-((6-(4-(3-((2-(2,6-dioxopiperidin-3-yl)-1-oxoisoindolin-4-yl)thio)propanoyl)piperazin-1-yl)-2-methylpyrimidin-4-yl)amino)thiazole-5-carboxamide] | 10.3 nM | 1.74 nM | > 10000 nM | – | > 10000 nM | –
Cc1nc(Nc2ncc(C(=O)Nc3c(C)cccc3Cl)s2)cc(N2CCN(C(=O)CSc3cccc4c3CN(C3CCC(=O)NC3=O)C4=O)CC2)n1 (centres unmarked) [SIAIS171105, N-(2-chloro-6-methylphenyl)-2-((6-(4-(2-((2-(2,6-dioxopiperidin-3-yl)-1-oxoisoindolin-4-yl)thio)acetyl)piperazin-1-yl)-2-methylpyrimidin-4-yl)amino)thiazole-5-carboxamide] | 56.7 nM | 5.71 nM | > 10000 nM | – | > 10000 nM | –
Cc1nc(Nc2ncc(C(=O)Nc3c(C)cccc3Cl)s2)cc(N2CCN(C(=O)C[S+]([O-])c3cccc4c3C(=O)N(C3CCC(=O)NC3=O)C4=O)CC2)n1 (centres unmarked) [SIAIS151109, N-(2-chloro-6-methylphenyl)-2-((6-(4-(2-((2-(2,6-dioxopiperidin-3-yl)-1,3-dioxoisoindolin-4-yl)sulfinyl)acetyl)piperazin-1-yl)-2-methylpyrimidin-4-yl)amino)thiazole-5-carboxamide] | 483 nM | 148 nM | > 10000 nM | – | > 10000 nM | –
COc1cc(Nc2c(C#N)cnc3cc(OCCCN4CCN(C)CC4)c(OC)cc23)c(Cl)cc1Cl [Bosutinib, reference compound] | – | 92.6 nM | > 10000 nM | – | > 10000 nM | –
CNCc1ccc(-c2[nH]c3cc(F)cc4c3c2CCNC4=O)cc1 [Rucaparib, reference compound] | – | – | – | 1.12 µM | – | –
Cc1nc(Nc2ncc(C(=O)Nc3c(C)cccc3Cl)s2)cc(N2CCN(C(=O)CS(=O)(=O)c3cccc4c3C(=O)N(C3CCC(=O)NC3=O)C4=O)CC2)n1 (centres unmarked) [SIAIS151108, N-(2-chloro-6-methylphenyl)-2-((6-(4-(2-((2-(2,6-dioxopiperidin-3-yl)-1,3-dioxoisoindolin-4-yl)sulfonyl)acetyl)piperazin-1-yl)-2-methylpyrimidin-4-yl)amino)thiazole-5-carboxamide] | 245 nM | 206 nM | > 10000 nM | – | > 10000 nM | –
O=C1CCC(N2C(=O)c3cccc(SCCCC(=O)N4CCN(C(=O)c5cc(Cc6n[nH]c(=O)c7ccccc67)ccc5F)CC4)c3C2=O)C(=O)N1 (centres unmarked) [SIAIS180065, 2-(2,6-dioxopiperidin-3-yl)-4-((4-(4-(2-fluoro-5-((4-oxo-3,4-dihydrophthalazin-1-yl)methyl)benzoyl)piperazin-1-yl)-4-oxobutyl)thio)isoindoline-1,3-dione] | – | – | – | 3.82 µM | – | –
Cc1nc(Nc2ncc(C(=O)Nc3c(C)cccc3Cl)s2)cc(N2CCN(C(=O)CCCCCSc3cccc4c3CN(C3CCC(=O)NC3=O)C4=O)CC2)n1 (centres unmarked) [SIAIS 171109] | – | – | – | – | – | IC50 (HEK293 cells; read-out: IC50 (nM)/HEK293 cell line, HEK293 cells, highest concentration 10 μM): > 10000 nM; IC50 ([1]; K562 cells, 48 hours, CCK-8): 0.53 nM; IC50 (U937 cells; read-out: IC50 (nM)/U937 cell line, U937 cells, highest concentration 10 μM): > 10000 nM
Cc1nc(Nc2ncc(C(=O)Nc3c(C)cccc3Cl)s2)cc(N2CCN(C(=O)CCCCSc3cccc4c3CN(C3CCC(=O)NC3=O)C4=O)CC2)n1 (centres unmarked) [SIAIS171108, N-(2-chloro-6-methylphenyl)-2-((6-(4-(5-((2-(2,6-dioxopiperidin-3-yl)-1-oxoisoindolin-4-yl)thio)pentanoyl)piperazin-1-yl)-2-methylpyrimidin-4-yl)amino)thiazole-5-carboxamide] | < 1 nM | 0.54 nM | > 10000 nM | – | > 10000 nM | –
